Reference: paper PMC10253456, “Investigating the Contribution of Major Drug-Metabolising Enzymes to Possum-Specific Fertility Control” (International Journal of Molecular Sciences, 2023)
Like-named read-outs stand apart in the source and are kept apart here.

What was measured:
UGT2B (heading: UGT2B4) [1] = experiment: p-nitrophenol glucuronidation activity in pooled human liver microsomes; conditions: human, pooled human liver microsomes (50 donors), pH 7.4, probe p-nitrophenol (0.5 mM final, from 50 µL of 5 mM in 500 µL)
UGT2B [2] = experiment: as above
CYP3A [3] = experiment: CYP3A catalytic activity (erythromycin N-demethylation) in mouse liver microsomes; conditions: for Percent control catalytic activity at estimated IC50 / Percent control catalytic activity at estimated 2-fold IC50: mouse liver microsomes, initial screen n=1; for Percent control catalytic activity at estimated IC50: compounds without reported IC50 at 1 µM; for Percent control catalytic activity at estimated 2-fold IC50: compounds without reported IC50 at 5 µM; for % of control (catalytic activity at 2-fold IC50) / Catalytic activity at 2-fold IC50: mouse, compound at estimated 2-fold IC50 (5 µM where none reported)
Protocol: (§1) Possums were collected from the Otago Peninsula (Dunedin) and the Okuti Valley, Banks Peninsula (Christchurch) in New Zealand in collaboration with the Otago Peninsula Biodiversity Group and Manaaki Whenua-Landcare Research, respectively. […] Possums were caged and humanely killed by a blow to the head, and the livers were harvested, snap-frozen in liquid nitrogen, and stored in a freezer at −80 °C until the preparation of microsomal fractions. […] Mice were euthanised by carbon dioxide inhalation and the livers were removed and microsomes prepared. […] The livers from avian species (mallards and a swan) were kindly donated by a local bird hunting group based in Dunedin, New Zealand. The livers from avian species were treated similarly to those mentioned above for the possum samples.
(§2) Microsomal preparation was carried out as previously described [76]. […] All procedures were performed at 0–4 °C. The liver samples were minced and homogenised in Buffer A (0.1 M Tris, 0.1 M potassium chloride, 1 mM EDTA, and 20 μM butylated hydroxytoluene, at pH = 7.4) using the Teflon-glass homogeniser (5–6 vertical passes). The samples were centrifuged at 10,000× g for 20 min. The supernatant was then transferred into another set of centrifuge tubes and spun at 100,000× g for 60 min. The pellet was resuspended in Buffer B (0.1 M potassium pyrophosphate, 1 mM EDTA, and 20 μM butylated hydroxytoluene, at pH = 7.4), homogenised, and recentrifuged at 100,000× g for 60 min. Finally, the pellet was homogenised in 1–2 mL of Buffer C (10 mM Tris-HCl, 1 mM EDTA, and 4% glycerol (v/v)), and stored at −80 °C until use. The protein concentration of the microsomes was determined using the bicinchoninic acid (BCA) method [77].
(§3) CYP3A catalytic activity was determined using the erythromycin N-demethylation activity assay, as described [78]. The reaction mixture (final volume of 1 mL and final protein concentration of 1 mg) contained 500 µL of microsomes in 0.1 M phosphate buffer (pH 7.4) and 400 µL of erythromycin buffer (0.45 mM), and 50 µL of the test compound was pre-warmed at 37 °C for 2 min. The reaction was initiated with 50 µL of 2.5 mM nicotinamide adenine dinucleotide phosphate (NADP^+) and incubated for 30 min at 37 °C. […] The tubes were vortexed and left for 5 min (at room temperature), and then 330 µL of saturated barium hydroxide was added. The tubes were further vortexed and left for 5 min (at room temperature). The tubes were then centrifuged at 1800× g for 10 min. To 830 µL of the supernatant, 330 µL of Nash reagent (30% (w/v) ammonium acetate, 0.4% (v/v) acetylacetone) was added and further incubated for 30 min at 60 °C. The blank tube contained 330 µL of Nash reagent and 830 µL of Milli-Q water. […] The CYP3A activities were determined in nmol/mg/min using standard curve data. Results presented are the mean ± SEM of 3 independent experiments performed in duplicate unless otherwise stated.
UGT2B (heading: UGT2B4) [4] = experiment: p-nitrophenol glucuronidation activity in mouse liver microsomes; conditions: BALB/c, mouse
UGT2B [5] = experiment: as above
UGT2B (heading: UGT2B4) [6] = experiment: p-nitrophenol glucuronidation activity in possum liver microsomes; format: biochemical, possum (Trichosurus vulpecula); conditions: possum (Trichosurus vulpecula)
UGT2B [7] = experiment: as above; format: biochemical, possum (Trichosurus vulpecula); conditions: for % of control (UGT2B4 catalytic activity at 2-fold IC50) / UGT2B4 catalytic activity at 2-fold IC50: compound at estimated 2-fold IC50
CYP3A [8] = experiment: CYP3A catalytic activity (erythromycin N-demethylation) in possum liver microsomes; conditions: for Percent control catalytic activity at estimated IC50 / Percent control catalytic activity at estimated 2-fold IC50: possum liver microsomes, initial screen n=1; for Percent control catalytic activity at estimated IC50: compounds without reported IC50 at 1 µM; for Percent control catalytic activity at estimated 2-fold IC50: compounds without reported IC50 at 5 µM; for % of control (catalytic activity at 2-fold IC50) / Catalytic activity at 2-fold IC50: possum, compound at estimated 2-fold IC50 (5 µM where none reported)
Protocol: as §1, §2, §3
UGT2B (heading: UGT2B4) [9] = experiment: in vitro; conditions: avian (mallards and a swan), pH 7.4
UGT2B [10] = conditions: avian; compound at estimated 2-fold IC50
UGT2B (heading: UGT2B4) [11] = experiment: in vitro; conditions: BALB/c, mouse, pH 7.4
UGT2B (heading: UGT2B4) [12] = experiment: in vitro; conditions: human, pH 7.4
CYP3A [13] = conditions: avian; compound at estimated 2-fold IC50 (5 µM where none reported)
Protocol: as §1, §2, §3

CYP3A [14] = experiment: CYP3A catalytic activity (erythromycin N-demethylation) in pooled human liver microsomes; conditions: for % of control (catalytic activity at 2-fold IC50) / Catalytic activity at 2-fold IC50: compound at estimated 2-fold IC50 (5 µM where none reported); for activity at 30 min: human, pH 7.4, probe erythromycin, % of control (catalytic activity at IC50), compound at estimated IC50 (1 µM where none reported)
Protocol: as §3

[15] = liver microsomes, pH 7.4, probe p-nitrophenol (0.5 mM final, from 50 µL of 5 mM in 500 µL)
[16] = pH 7.4, compound at estimated IC50, read-out: % of control (UGT2B4 catalytic activity at IC50)
[17] = mouse, compound at estimated 2-fold IC50
[18] = liver microsomes, pH 7.4, probe p-nitrophenol (0.5 mM final, from 50 µL of 5 mM in 500 µL), compound at estimated IC50, read-out: % of control (UGT2B4 catalytic activity at IC50)
[19] = pooled human liver microsomes, compound at estimated 2-fold IC50

SMILES	activity at 30 min (UGT2B (heading: UGT2B4) [1]) [%]	% of control (UGT2B4 catalytic activity at 2-fold IC50) (UGT2B [2])	UGT2B4 catalytic activity at 2-fold IC50 (UGT2B [2])	Percent control catalytic activity at estimated IC50 (CYP3A [3]) [percent control]	Percent control catalytic activity at estimated 2-fold IC50 (CYP3A [3]) [percent control]	activity at 30 min (UGT2B (heading: UGT2B4) [4]; [15]) [%]	% of control (UGT2B4 catalytic activity at 2-fold IC50) (UGT2B [5])	UGT2B4 catalytic activity at 2-fold IC50 (UGT2B [5])	activity at 30 min (UGT2B (heading: UGT2B4) [6]; [16]) [%]	% of control (UGT2B4 catalytic activity at 2-fold IC50) (UGT2B [7])	UGT2B4 catalytic activity at 2-fold IC50 (UGT2B [7]) [µmol/mg/min]	Percent control catalytic activity at estimated IC50 (CYP3A [8]) [percent control]	Percent control catalytic activity at estimated 2-fold IC50 (CYP3A [8]) [percent control]	activity at 30 min (UGT2B (heading: UGT2B4) [9]) [%]	% of control (UGT2B4 catalytic activity at 2-fold IC50) (UGT2B [10])	UGT2B4 catalytic activity at 2-fold IC50 (UGT2B [10]) [µmol/mg/min]	% of control (UGT2B4 catalytic activity at 2-fold IC50) (UGT2B [5]; [17])	activity at 30 min (UGT2B (heading: UGT2B4) [6]; [18]) [%]	activity at 30 min (UGT2B (heading: UGT2B4) [4]; pH 7.4) [%]	other results
O=C(/C=C/C=C/c1ccc2c(c1)OCO2)N1CCCCC1 [Piperine]	94	92	3.62	126	107	113	99	2.70±0.07	103	103 % of control	4.29 ± 0.17	127	121	84	86 % of control	0.55 ± 0.06				
O=c1cc(-c2ccccc2)oc2cc(O)c(O)c(O)c12 [Baicalein]			3.95	114	99		95	3.08±0.04	105	106 % of control	3.91 ± 0.20	102	112	56	44 % of control	0.17 ± 0.06				activity (UGT2B (heading: UGT2B4) [11]): 96%; activity (UGT2B (heading: UGT2B4) [12]): 97%
Nc1ccc(S(=O)(=O)Nc2ccnn2-c2ccccc2)cc1 [Sulfaphenazole]		98	3.38 µmol/mg/min	96	100	103		2.27 ± 0.02 µmol/mg/min		99 % of control	3.59 ± 0.23	93	84	74	74 % of control	0.57 ± 0.14	94 % of control	105		% of control (catalytic activity at 2-fold IC50) (CYP3A [3]): 109 % of control; Catalytic activity at 2-fold IC50 (CYP3A [3]): 0.68 ± 0.06 nmol/mg/min; % of control (catalytic activity at 2-fold IC50) (CYP3A [13]): 110 % of control; Catalytic activity at 2-fold IC50 (CYP3A [13]): 0.33 ± 0.06 nmol/mg/min; % of control (catalytic activity at 2-fold IC50) (CYP3A [8]): 111 % of control; Catalytic activity at 2-fold IC50 (CYP3A [8]): 0.37 ± 0.04 nmol/mg/min; % of control (catalytic activity at 2-fold IC50) (CYP3A [14]): 105 % of control; Catalytic activity at 2-fold IC50 (CYP3A [14]): 0.47 nmol/mg/min; activity (UGT2B (heading: UGT2B4) [12]): 102%
CCC(C)n1ncn(-c2ccc(N3CCN(c4ccc(OCC5COC(Cn6cncn6)(c6ccc(Cl)cc6Cl)O5)cc4)CC3)cc2)c1=O (stereo not drawn) [Itraconazole]	95	88	2.80 µmol/mg/min	91	91		106	1.99 ± 0.24 µmol/mg/min		102 % of control	3.06 ± 0.25	141	120	118	94 % of control	0.35 ± 0.05		102	125	
CC(C)c1nc(CN(C)C(=O)N[C@@H](CCN2CCOCC2)C(=O)N[C@H](CC[C@H](Cc2ccccc2)NC(=O)OCc2cncs2)Cc2ccccc2)cs1 [Cobicistat]	110					104								33						
OC(Cn1cncn1)(Cn1cncn1)c1ccc(F)cc1F [Fluconazole]	112			70					93			107		224					81	p-nitrophenol glucuronidation (UGT2B) activity, % of the control (UGT2B [7]; at estimated IC50 and 2-fold IC50 values): > 65 % of the control; activity at 30 min (CYP3A [14]): 91%
CC[C@H]1OC(=O)[C@H](C)[C@@H](O[C@H]2C[C@@](C)(OC)[C@@H](O)[C@H](C)O2)[C@H](C)[C@@H](O[C@@H]2O[C@H](C)C[C@H](N(C)C)[C@H]2O)[C@](C)(OC)C[C@@H](C)C(=O)[C@H](C)[C@@H](O)[C@]1(C)O [Clarithromycin]				89	81				108	96 % of control	3.51 ± 0.28	90	117	110	48 % of control	0.20 ± 0.08	90 % of control		120	% of control (catalytic activity at 2-fold IC50) (CYP3A [3]): 95 % of control; Catalytic activity at 2-fold IC50 (CYP3A [3]): 0.60 ± 0.09 nmol/mg/min; UGT2B4 catalytic activity at 2-fold IC50 (UGT2B [5]; [17]): 1.77 ± 0.12 µmol/mg/min; % of control (catalytic activity at 2-fold IC50) (CYP3A [13]): 94 % of control; Catalytic activity at 2-fold IC50 (CYP3A [13]): 0.41 ± 0.07 nmol/mg/min; % of control (catalytic activity at 2-fold IC50) (CYP3A [8]): 103 % of control; Catalytic activity at 2-fold IC50 (CYP3A [8]): 0.43 ± 0.01 nmol/mg/min; % of control (catalytic activity at 2-fold IC50) (CYP3A [14]): 91 % of control; Catalytic activity at 2-fold IC50 (CYP3A [14]): 0.59 nmol/mg/min; activity at 30 min (CYP3A [14]): 95%
C[C@@H]1CC[C@H]2C(C)(C)[C@H]3C[C@@]12CC[C@@]3(C)O [Cedrol]	98			90	62					92 % of control	3.78 ± 0.13	107	99	96	91 % of control	0.56 ± 0.13	84 % of control	93	84	% of control (UGT2B4 catalytic activity at 2-fold IC50) (UGT2B [2]; [19]): 98 % of control; UGT2B4 catalytic activity at 2-fold IC50 (UGT2B [2]; [19]): 3.85 µmol/mg/min; UGT2B4 catalytic activity at 2-fold IC50 (UGT2B [5]; [17]): 2.57 ± 0.16 µmol/mg/min
